From the METLIN SMRT retention time set (Domingo-Almenara et al. 2019)

Assay: gradient 5% acetonitrile 3 min, to 50% in 2 min, to 85% in 15 min, held 3 min, 100 µL/min
Conditions: column: Zorbax Extend-C18 2.1 x 50 mm; eluents: water / acetonitrile, 0.1% formic acid
Procedure, shortened: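 The system's dead and dwell volumes were 40 μL and 900 μL, with a Zorbax Extend-C18 column (2.1 × 50 mm, 1.8 μm) run at 100 μL/min in water and acetonitrile containing 0.1% formic acid each. Pure standards were analyzed in mixtures of ~100 molecules by HPLC–quadrupole time-of-flight mass spectrometry in positive and negative ionization mode. Retention time was assigned from computationally picked, manually inspected adduct peaks.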

Row | RP-LC retention time [s] | SMILES
1 | 761 | CSc1nc(N2CCCC2)c2cnn(CCNC(=O)c3cc(-c4ccccc4)n[nH]3)c2n1
2 | 580 | O=C(Cc1cn2cc(F)ccc2n1)Nc1ccccc1
3 | 835 | CCCn1cc(CCNC(=O)Nc2ccc(Br)cc2)c2cccnc21
4 | 940 | CCOc1ccc2nc(C(=O)NCc3ccc(OC(C)C)cc3)cn2n1
5 | 770 | COCCNC(=O)C1CCN(C(=O)c2cc3ccsc3n2Cc2cccc(OC)c2)CC1
6 | 698 | COc1ccc(-c2ccc3c(N4CCOCC4)nc(N4C[C@@H](C)O[C@@H](C)C4)nc3n2)cc1CO
7 | 840 | O=S(=O)(c1cccc(-c2nc(-c3ccccc3)no2)c1)N1CCN(C2CCCCC2)CC1
8 | 544 | Cc1ncsc1CN1CCn2c(nnc2[C@@H]2C[C@@H](O)CN2Cc2cccnc2)C1
9 | 677 | CC(C)CCNC(=O)C1CCCN(c2cc(=O)n(C)c(=O)n2C)C1 (stereo not drawn)
10 | 812 | O=C(Nc1ccccc1)C(=O)c1ccc[nH]1
11 | 968 | O=C(Cn1cccc(-c2nc(-c3ccc(Br)cc3)no2)c1=O)Nc1ccccc1
12 | 1010 | CCn1c(=O)n(Cc2ccccc2Cl)c(=O)c2cnc(-c3ccc(OC)cc3)nc21
13 | 720 | CCCCOc1ccc(C(=O)N2CCN(c3cc(C)nc(N4CCOCC4)n3)CC2)cc1
14 | 667 | COc1ccc(NC(=O)C2CCCN(c3nnc4c(Cl)cccn34)C2)cc1OC (stereo not drawn)
15 | 651 | COc1ccc(NC(=O)N2CCCC(Cn3cnc4cccnc43)C2)c(OC)c1 (stereo not drawn)
16 | 593 | COc1cccc(CNc2ccc3[nH]c(=O)[nH]c3c2)c1OC
17 | 660 | COc1ccc(N2CCN(C(=O)c3c(OC)cc(=O)n4c3CCCC4)CC2)cc1
18 | 616 | Cc1ccc(-c2c(C(=O)NCCN3CCOCC3)nc3ccccn23)cc1
19 | 654 | C[C@@]1(c2cc(-c3cncnc3)c(F)cc2F)CCSC(N)=N1
20 | 793 | CCOC(=O)CNC(=O)NCc1cccn1Cc1ccccc1
21 | 996 | Cc1ccc(OCC(=O)N(Cc2ccc(Br)o2)C2CCS(=O)(=O)C2)cc1C (stereo not drawn)
22 | 647 | CCOCC(=O)Nc1ccc(-c2cn3c(C(=O)N(C)C)csc3n2)cc1

Row | RP-LC retention time [s] | SMILES
23 | 669 | COc1ccc(-n2nc(C)c3sc(N(C)CC(=O)N4CCN(c5ccccn5)CC4)nc32)cc1
24 | 741 | Cc1c(Cn2c(C)nc3c(C(=O)O)cc(N4CCOCC4)cc32)cccc1C(F)(F)F
25 | 797 | CC(NC(=O)CN1C(=O)CCn2nc(-c3cn(C)c4ccccc34)cc21)c1ccc2c(c1)OCCO2 (stereo not drawn)
26 | 1010 | CCOC(=O)N1CCN(c2nc(F)c(F)c(S(=O)(=O)CCNc3ccccc3)c2F)CC1
27 | 954 | N#CCCSc1ccccc1NC(=O)c1cc2cc([N+](=O)[O-])ccc2s1
28 | 702 | CC(C)CNC(=O)c1cn(-c2ccc(NC(=O)C(C)C)cn2)cn1
29 | 923 | CCCCOc1ccc(NC(=O)c2oc3ccc(C)cc3c2C)c2cccnc12
30 | 975 | Cc1nc(-c2csc(S(=O)(=O)N3CCCC(C(=O)Nc4ccccc4Cl)C3)c2)no1 (stereo not drawn)
31 | 690 | Cc1ccn2c(Nc3ccc4c(c3)OCO4)c(-c3ccccc3)nc2c1
32 | 836 | Cc1cc(Nc2ccc(F)cc2)nc2nn(Cc3cc(=O)n4ccccc4n3)c(=O)n12
33 | 665 | O=C1NCCOCCCN(C(=O)Nc2ccc3c(c2)OCCO3)[C@H]2CCCC[C@@H]12
34 | 1120 | Cc1ccc(-c2nc(-c3ccc4c(c3)oc(=O)n4C)no2)cc1
35 | 573 | CC(NC(=O)c1csc(-c2ccc(N3CCCC3)nc2)n1)c1ccccn1 (stereo not drawn)
36 | 695 | CCOc1coc(C(=O)Nc2cccc(F)c2)cc1=O
37 | 1270 | COc1ccc(-c2csc(C)n2)cc1S(=O)(=O)N1CCN(c2cccc(C)c2C)CC1
38 | 1330 | O=C1CN(Cc2ccc(F)cc2Cl)CC2(CCCCC2)N1CC1CC1
39 | 665 | Cc1noc(CNC(=O)C2CCN(C(=O)CSc3nc4ccccc4s3)CC2)n1
40 | 845 | CC1=C(c2ccc(F)cc2)S(=O)(=O)N=C1N1CCCN(C(=O)NC2CCCCC2)CC1
41 | 597 | CCN1CCN(CCNC(=O)C2CCN(C(=O)c3ccc(-n4ccc5ccccc54)s3)CC2)CC1
42 | 667 | O=C(NC1(c2nc(-c3cccnc3)no2)CCCCC1)c1ccc[nH]c1=O
43 | 1100 | CSc1nc2cc(S(=O)(=O)N3CCCCC3)ccc2s1
44 | 1050 | CCOC(=O)c1c(C)c(C(=O)C(C)N(CC)C(=O)c2ccccc2Cl)c(C)n1CC (stereo not drawn)

Row | RP-LC retention time [s] | SMILES
45 | 999 | Cc1ccc(-n2nc(N3CCCC(C(=O)NCc4ccc(OC(C)C)cc4)C3)ccc2=O)cc1Cl (stereo not drawn)
46 | 650 | COCCNC(=O)C(=O)NCCc1cccc(OC)c1
47 | 878 | Cc1sc(NC(=O)c2ccccc2F)nc1-c1ccc2c(c1)NC(=O)CO2
48 | 756 | Cc1noc([C@@H]2CC(F)(F)CN2C(=O)c2ccoc2C)n1
49 | 696 | O=C1c2ccccc2C(=O)N1CCSc1nnc2sc3ccccc3n12
50 | 664 | O=S(=O)(CCc1ccccc1)N1CCN(c2ccc3nncn3n2)CC1
51 | 659 | CCc1nn2c(CNC(=O)c3cc(Cl)ccc3OC)c(C)nc2s1
52 | 1010 | O=C(Nc1cc(-c2ccsc2)no1)c1ccc(Cl)cc1
53 | 910 | CCc1ccc(CNC(=O)C2CCCN(c3ccc(=O)n(-c4ccc(F)cc4)n3)C2)cc1 (stereo not drawn)
54 | 775 | CCC(C)NC(=O)CC1CCN(C(=O)c2[nH]c(C)c(C(=O)OC(C)C)c2C)CC1 (stereo not drawn)
55 | 693 | COc1ccc(CNC(=O)c2ccc(CN3CCN(C(C)C)C(=O)C3=O)cc2)cc1
56 | 821 | CC1=C(c2ccc(C)cc2)S(=O)(=O)N=C1N1CCCN(C(=O)c2ccsc2)CC1
57 | 801 | CCc1noc(NC(C)=O)c1-c1ccc(C)c(S(=O)(=O)N2CCCC2)c1
58 | 574 | Cn1cc(S(=O)(=O)N2CCOCC2)cc1C(=O)N1CCN(c2ccccn2)CC1
59 | 1100 | COc1ccccc1N1CCN(c2cc(SCC(=O)Nc3ccccc3F)ncn2)CC1
60 | 737 | O=C(NCC1CCCO1)c1ccc(Cn2nc(N3CCN(c4ccccc4)CC3)ccc2=O)o1 (stereo not drawn)
61 | 1030 | O=C(NCc1cc(F)cc(F)c1)C1CCCN(c2nccnc2Sc2ccccc2)C1 (stereo not drawn)
62 | 537 | O=C(NCCCN1CCC(N2CCCCC2)CC1)c1ccc2c(c1)NC(=O)C1CCCCN21 (stereo not drawn)
63 | 553 | OC[C@@H]1CN(C2CCCC2)C[C@H]1c1nc(-c2ccncc2)no1
64 | 561 | CN1C(=O)NC2(CCN(C(=O)c3cccs3)CC2)C1=O
65 | 884 | COc1cccc(NS(=O)(=O)c2ccc(-c3c(C)noc3C)cc2)c1
66 | 718 | Cc1cccc(S(=O)(=O)N2CCC(c3cc(=O)n4nccc4n3C)CC2)c1

Row | RP-LC retention time [s] | SMILES
67 | 654 | Cc1cc(N2CCCC2)n2nc(CN3CCN(c4ccc(Cl)cc4)CC3)nc2n1
68 | 883 | O=C(NC1CCCCC1)c1nc(Nc2ccc(F)cc2)c2ccccc2n1
69 | 848 | COc1ccc(NC(=O)C(C)C2CCN(C(=O)Nc3ccc(C)cc3)CC2)c(OC)c1 (stereo not drawn)
70 | 846 | COc1ccc(CNC(=O)Cn2nc(C)c3sc(-c4ccccc4)nc3c2=O)cc1
71 | 1160 | COc1ccc(-c2nnc(-c3cc(S(=O)(=O)N4CCC(C)CC4)ccc3Cl)o2)cc1
72 | 859 | CCS(=O)(=O)c1ccc2c(c1)N(Cc1nc(-c3ccc4c(c3)OCO4)no1)C(=O)CO2
73 | 674 | COc1ccc(S(=O)(=O)NC(CC(=O)O)c2ccccc2)cc1 (stereo not drawn)
74 | 955 | Cc1[nH]c(C(=O)N2CCCC(C(=O)NC(C)CCc3ccccc3)C2)c(C)c1C(=O)OC(C)C (stereo not drawn)
75 | 594 | Cc1ccc(NC(=O)N2CCN(CCn3cnc4cccnc43)CC2)c(C)c1
76 | 605 | COc1ccc(CCn2ccc3nc(N4CCN(C)CC4)ncc3c2=O)cc1OC
77 | 730 | O=S(=O)(c1ccccc1)N1CCC2(CC1)NCCN=C2NCc1ccc(F)c(Cl)c1
78 | 579 | CCC1CCCCN1CCCNC(=O)C1CCN(c2ncnc3onc(C)c23)CC1 (stereo not drawn)
79 | 775 | CCOC(=O)Cc1ccc(NC(=O)N2CCCC2c2c(C)noc2C)cc1 (stereo not drawn)
80 | 696 | CSc1cccc(NC(=O)N2CCN(c3cc(C)nc(N4CCCC4)n3)CC2)c1
81 | 920 | COc1ccc(NC(=O)N2CC=C(c3cn(C(C)C)c4ncccc34)CC2)cc1F
82 | 677 | Cc1nc(N2CCN(c3ccccn3)CC2)nc2c1C(=O)CC(C)(C)C2
83 | 840 | CSc1cccc(NC(=O)Cn2c(N3CCc4ccccc4C3)nc(C)cc2=O)c1
84 | 987 | O=c1c2sccc2n(Cc2nc(-c3ccc(F)cc3)no2)c(=O)n1-c1ccc(F)cc1
85 | 690 | Cc1cc(Nc2cccc(C(C)O)c2)nc(-n2cc([N+](=O)[O-])cn2)n1 (stereo not drawn)

Row | SMILES | RP-LC retention time [s]
86 | COc1ccc2c(c1)C1(CCN(S(=O)(=O)c3cccc(Cl)c3)C1)C(=O)N2C (stereo not drawn) | 978
87 | COC(=O)c1ccc(OC(=O)N(C)c2ccccc2)cc1 | 879
88 | CN1C(=O)CN=C(c2ccccc2)c2cc([N+](=O)[O-])ccc21 | 869
